Test results published in ChEMBL document CHEMBL1909294, “Translating clinical findings into knowledge in drug safety evaluation--drug induced liver injury prediction system (DILIps)” (PLoS Comput Biol, 2011).

Columns and labels:
Hepatotoxicity [1] = test system: Hepatotoxicity;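 as to HepSE bilirubinemia: bilirubinemia hepatic side effect score drawn from the DILIps training data, a prediction system for drug-induced liver injury; call rule not given here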;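 as to HepSE cholecystitis: Cholecystitis-related hepatic side effect score drawn from the DILIps (drug-induced liver injury prediction) training data set; call rule not given here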;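 as to HepSE cholelithiasis: hepatic side effect score for cholelithiasis, drawn from the DILIps training data for predicting drug-induced liver injury; call rule not given here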;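 as to HepSE cirrhosis: cirrhosis hepatic side effect score taken from the DILIps (drug-induced liver injury prediction) training set; call rule not given here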;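 as to HepSE elevated liver function tests: hepatic side effect score for raised liver function tests, as recorded in the DILIps training set used for predicting drug-induced liver injury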; as to HepSE hepatic failure: call rule not given here;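 as to HepSE hepatomegaly: hepatic side effect score for hepatomegaly, taken from the training set of the DILIps drug-induced liver injury prediction system; call rule not given here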
Hepatotoxicity [2] = test system: Hepatotoxicity; remark: listed apart in the source;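 as to HepSE bilirubinemia: bilirubinemia hepatic side effect score drawn from the DILIps training data, a prediction system for drug-induced liver injury; call rule not given here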;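 as to HepSE cholecystitis: Cholecystitis-related hepatic side effect score drawn from the DILIps (drug-induced liver injury prediction) training data set; call rule not given here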;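 as to HepSE cholelithiasis: hepatic side effect score for cholelithiasis, drawn from the DILIps training data for predicting drug-induced liver injury; call rule not given here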;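 as to HepSE cirrhosis: cirrhosis hepatic side effect score taken from the DILIps (drug-induced liver injury prediction) training set; call rule not given here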;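 as to HepSE elevated liver function tests: hepatic side effect score for raised liver function tests, as recorded in the DILIps training set used for predicting drug-induced liver injury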; as to HepSE hepatic failure: call rule not given here
Hepatotoxicity [3] = test system: Hepatotoxicity; remark: listed apart in the source;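 as to HepSE bilirubinemia: bilirubinemia hepatic side effect score drawn from the DILIps training data, a prediction system for drug-induced liver injury; call rule not given here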;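 as to HepSE cholecystitis: Cholecystitis-related hepatic side effect score drawn from the DILIps (drug-induced liver injury prediction) training data set; call rule not given here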;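 as to HepSE cholelithiasis: hepatic side effect score for cholelithiasis, drawn from the DILIps training data for predicting drug-induced liver injury; call rule not given here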;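 as to HepSE cirrhosis: cirrhosis hepatic side effect score taken from the DILIps (drug-induced liver injury prediction) training set; call rule not given here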;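 as to HepSE elevated liver function tests: hepatic side effect score for raised liver function tests, as recorded in the DILIps training set used for predicting drug-induced liver injury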; as to HepSE hepatic failure: call rule not given here
Hepatotoxicity [4] = test system: Hepatotoxicity; remark: listed apart in the source;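 as to HepSE bilirubinemia: bilirubinemia hepatic side effect score drawn from the DILIps training data, a prediction system for drug-induced liver injury; call rule not given here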;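 as to HepSE cholecystitis: Cholecystitis-related hepatic side effect score drawn from the DILIps (drug-induced liver injury prediction) training data set; call rule not given here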;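 as to HepSE cholelithiasis: hepatic side effect score for cholelithiasis, drawn from the DILIps training data for predicting drug-induced liver injury; call rule not given here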;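 as to HepSE cirrhosis: cirrhosis hepatic side effect score taken from the DILIps (drug-induced liver injury prediction) training set; call rule not given here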;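 as to HepSE elevated liver function tests: hepatic side effect score for raised liver function tests, as recorded in the DILIps training set used for predicting drug-induced liver injury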; as to HepSE hepatic failure: call rule not given here
Hepatotoxicity [5] = test system: Hepatotoxicity; remark: listed apart in the source; as to HepSE hepatic failure: call rule not given here
Hepatotoxicity [6] = test system: Hepatotoxicity; remark: listed apart in the source; as to HepSE hepatic failure: call rule not given here
Hepatotoxicity [7] = test system: Hepatotoxicity; remark: listed apart in the source
Hepatotoxicity [8] = test system: Hepatotoxicity; remark: listed apart in the source
Hepatotoxicity [9] = test system: Hepatotoxicity; remark: listed apart in the source
Hepatotoxicity [10] = test system: Hepatotoxicity; remark: listed apart in the source
Hepatotoxicity [11] = test system: Hepatotoxicity; remark: listed apart in the source
Hepatotoxicity [12] = test system: Hepatotoxicity; remark: listed apart in the source
Hepatotoxicity [13] = test system: Hepatotoxicity; remark: listed apart in the source
Hepatotoxicity [14] = test system: Hepatotoxicity; remark: listed apart in the source

CC1CNc2c(cccc2S(=O)(=O)N[C@@H](CCCNC(=N)N)C(=O)N2CC[C@@H](C)C[C@@H]2C(=O)O)C1 (some centres not stated) [ARGATROBAN]
HepSE_bilirubinemia (Hepatotoxicity [1]): 0 | HepSE_cholecystitis (Hepatotoxicity [2]): 0 | HepSE_cholelithiasis (Hepatotoxicity [3]): 0 | HepSE_cirrhosis (Hepatotoxicity [4]): 0 | HepSE_elevated liver function tests (Hepatotoxicity [5]): 0 | HepSE_hepatic failure (Hepatotoxicity [6]): 0 | HepSE_hepatic necrosis (Hepatotoxicity [7]): 0 | HepSE_hepatitis (Hepatotoxicity [8]): 0 | HepSE_hepatomegaly (Hepatotoxicity [9]): 0 | HepSE_jaundice (Hepatotoxicity [10]): 0 | HepSE_liver disease (Hepatotoxicity [11]): 0 | HepSE_liver fatty (Hepatotoxicity [12]): 0 | HepSE_liver function tests abnormal (Hepatotoxicity [13]): 0 | HepSE_Combined Scores (Hepatotoxicity [14]): 0

CNCC[C@@H](Oc1ccccc1C)c1ccccc1 [ATOMOXETINE]
HepSE_bilirubinemia (Hepatotoxicity [1]): 0 | HepSE_cholecystitis (Hepatotoxicity [2]): 0 | HepSE_cholelithiasis (Hepatotoxicity [3]): 0 | HepSE_cirrhosis (Hepatotoxicity [4]): 0 | HepSE_elevated liver function tests (Hepatotoxicity [5]): 0 | HepSE_hepatic failure (Hepatotoxicity [6]): 0 | HepSE_hepatic necrosis (Hepatotoxicity [7]): 0 | HepSE_hepatitis (Hepatotoxicity [8]): 0 | HepSE_hepatomegaly (Hepatotoxicity [9]): 0 | HepSE_jaundice (Hepatotoxicity [10]): 0 | HepSE_liver disease (Hepatotoxicity [11]): 0 | HepSE_liver fatty (Hepatotoxicity [12]): 0 | HepSE_liver function tests abnormal (Hepatotoxicity [13]): 1 | HepSE_Combined Scores (Hepatotoxicity [14]): 1

CN[C@@H]1CCc2[nH]c3ccc(C(N)=O)cc3c2C1 [FROVATRIPTAN]
HepSE_bilirubinemia (Hepatotoxicity [1]): 0 | HepSE_cholecystitis (Hepatotoxicity [2]): 0 | HepSE_cholelithiasis (Hepatotoxicity [3]): 0 | HepSE_cirrhosis (Hepatotoxicity [4]): 0 | HepSE_elevated liver function tests (Hepatotoxicity [5]): 0 | HepSE_hepatic failure (Hepatotoxicity [6]): 0 | HepSE_hepatic necrosis (Hepatotoxicity [7]): 0 | HepSE_hepatitis (Hepatotoxicity [8]): 0 | HepSE_hepatomegaly (Hepatotoxicity [9]): 0 | HepSE_jaundice (Hepatotoxicity [10]): 0 | HepSE_liver disease (Hepatotoxicity [11]): 0 | HepSE_liver fatty (Hepatotoxicity [12]): 0 | HepSE_liver function tests abnormal (Hepatotoxicity [13]): 0 | HepSE_Combined Scores (Hepatotoxicity [14]): 0

Cc1ccnc2c1NC(=O)c1cccnc1N2C1CC1 [NEVIRAPINE]
HepSE_bilirubinemia (Hepatotoxicity [1]): 0 | HepSE_cholecystitis (Hepatotoxicity [2]): 0 | HepSE_cholelithiasis (Hepatotoxicity [3]): 0 | HepSE_cirrhosis (Hepatotoxicity [4]): 0 | HepSE_elevated liver function tests (Hepatotoxicity [5]): 0 | HepSE_hepatic failure (Hepatotoxicity [6]): 1 | HepSE_hepatic necrosis (Hepatotoxicity [7]): 1 | HepSE_hepatitis (Hepatotoxicity [8]): 1 | HepSE_hepatomegaly (Hepatotoxicity [9]): 0 | HepSE_jaundice (Hepatotoxicity [10]): 1 | HepSE_liver disease (Hepatotoxicity [11]): 1 | HepSE_liver fatty (Hepatotoxicity [12]): 0 | HepSE_liver function tests abnormal (Hepatotoxicity [13]): 1 | HepSE_Combined Scores (Hepatotoxicity [14]): 6

CN(C)CCCOc1nn(Cc2ccccc2)c2ccccc12 [BENZYDAMINE]
HepSE_bilirubinemia (Hepatotoxicity [1]): 0 | HepSE_cholecystitis (Hepatotoxicity [2]): 0 | HepSE_cholelithiasis (Hepatotoxicity [3]): 0 | HepSE_cirrhosis (Hepatotoxicity [4]): 0 | HepSE_elevated liver function tests (Hepatotoxicity [5]): 0 | HepSE_hepatic failure (Hepatotoxicity [6]): 0 | HepSE_hepatic necrosis (Hepatotoxicity [7]): 0 | HepSE_hepatitis (Hepatotoxicity [8]): 0 | HepSE_hepatomegaly (Hepatotoxicity [9]): 0 | HepSE_jaundice (Hepatotoxicity [10]): 0 | HepSE_liver disease (Hepatotoxicity [11]): 0 | HepSE_liver fatty (Hepatotoxicity [12]): 0 | HepSE_liver function tests abnormal (Hepatotoxicity [13]): 0 | HepSE_Combined Scores (Hepatotoxicity [14]): 0

C=C1CC[C@H](O)C/C1=C/C=C1\CCC[C@]2(C)[C@@H]([C@H](C)CCCC(C)C)CC[C@@H]12 [CHOLECALCIFEROL]
HepSE_bilirubinemia (Hepatotoxicity [1]): 0 | HepSE_cholecystitis (Hepatotoxicity [2]): 0 | HepSE_cholelithiasis (Hepatotoxicity [3]): 0 | HepSE_cirrhosis (Hepatotoxicity [4]): 0 | HepSE_elevated liver function tests (Hepatotoxicity [5]): 0 | HepSE_hepatic failure (Hepatotoxicity [6]): 0 | HepSE_hepatic necrosis (Hepatotoxicity [7]): 0 | HepSE_hepatitis (Hepatotoxicity [8]): 0 | HepSE_hepatomegaly (Hepatotoxicity [9]): 0 | HepSE_jaundice (Hepatotoxicity [10]): 0 | HepSE_liver disease (Hepatotoxicity [11]): 0 | HepSE_liver fatty (Hepatotoxicity [12]): 0 | HepSE_liver function tests abnormal (Hepatotoxicity [13]): 0 | HepSE_Combined Scores (Hepatotoxicity [14]): 0

CCC1(c2ccccc2)NC(=O)N(C)C1=O (configuration not stated) [MEPHENYTOIN]
HepSE_bilirubinemia (Hepatotoxicity [1]): 0 | HepSE_cholecystitis (Hepatotoxicity [2]): 0 | HepSE_cholelithiasis (Hepatotoxicity [3]): 0 | HepSE_cirrhosis (Hepatotoxicity [4]): 0 | HepSE_elevated liver function tests (Hepatotoxicity [5]): 0 | HepSE_hepatic failure (Hepatotoxicity [6]): 0 | HepSE_hepatic necrosis (Hepatotoxicity [7]): 0 | HepSE_hepatitis (Hepatotoxicity [8]): 1 | HepSE_hepatomegaly (Hepatotoxicity [9]): 0 | HepSE_jaundice (Hepatotoxicity [10]): 1 | HepSE_liver disease (Hepatotoxicity [11]): 0 | HepSE_liver fatty (Hepatotoxicity [12]): 0 | HepSE_liver function tests abnormal (Hepatotoxicity [13]): 0 | HepSE_Combined Scores (Hepatotoxicity [14]): 2

GOLD SODIUM THIOMALATE
HepSE_bilirubinemia (Hepatotoxicity [1]): 0 | HepSE_cholecystitis (Hepatotoxicity [2]): 0 | HepSE_cholelithiasis (Hepatotoxicity [3]): 0 | HepSE_cirrhosis (Hepatotoxicity [4]): 0 | HepSE_elevated liver function tests (Hepatotoxicity [5]): 0 | HepSE_hepatic failure (Hepatotoxicity [6]): 1 | HepSE_hepatic necrosis (Hepatotoxicity [7]): 0 | HepSE_hepatitis (Hepatotoxicity [8]): 0 | HepSE_hepatomegaly (Hepatotoxicity [9]): 0 | HepSE_jaundice (Hepatotoxicity [10]): 1 | HepSE_liver disease (Hepatotoxicity [11]): 0 | HepSE_liver fatty (Hepatotoxicity [12]): 0 | HepSE_liver function tests abnormal (Hepatotoxicity [13]): 0 | HepSE_Combined Scores (Hepatotoxicity [14]): 2

COc1cc(Cc2cnc(N)nc2N)cc(OC)c1OC [TRIMETHOPRIM]
HepSE_bilirubinemia (Hepatotoxicity [1]; Liver): 0 | HepSE_cholecystitis (Hepatotoxicity [2]; Liver): 0 | HepSE_cholelithiasis (Hepatotoxicity [3]; Liver): 0 | HepSE_cirrhosis (Hepatotoxicity [4]; Liver): 0 | HepSE_elevated liver function tests (Hepatotoxicity [5]; Liver): 0 | HepSE_hepatic failure (Hepatotoxicity [6]; Liver): 0 | HepSE_hepatic necrosis (Hepatotoxicity [7]; Liver): 0 | HepSE_hepatitis (Hepatotoxicity [8]; Liver): 0 | HepSE_hepatomegaly (Hepatotoxicity [9]; Liver): 0 | HepSE_jaundice (Hepatotoxicity [10]; Liver): 1 | HepSE_liver disease (Hepatotoxicity [11]; Liver): 0 | HepSE_liver fatty (Hepatotoxicity [12]; Liver): 0 | HepSE_liver function tests abnormal (Hepatotoxicity [13]; Liver): 0 | HepSE_Combined Scores (Hepatotoxicity [14]; Liver): 1

CC(C)(C)NCC(O)c1cc(O)cc(O)c1 (configuration not stated) [TERBUTALINE]
HepSE_bilirubinemia (Hepatotoxicity [1]): 0 | HepSE_cholecystitis (Hepatotoxicity [2]): 0 | HepSE_cholelithiasis (Hepatotoxicity [3]): 0 | HepSE_cirrhosis (Hepatotoxicity [4]): 0 | HepSE_elevated liver function tests (Hepatotoxicity [5]): 0 | HepSE_hepatic failure (Hepatotoxicity [6]): 0 | HepSE_hepatic necrosis (Hepatotoxicity [7]): 0 | HepSE_hepatitis (Hepatotoxicity [8]): 0 | HepSE_hepatomegaly (Hepatotoxicity [9]): 0 | HepSE_jaundice (Hepatotoxicity [10]): 0 | HepSE_liver disease (Hepatotoxicity [11]): 0 | HepSE_liver fatty (Hepatotoxicity [12]): 0 | HepSE_liver function tests abnormal (Hepatotoxicity [13]): 0 | HepSE_Combined Scores (Hepatotoxicity [14]): 0

CN1C[C@H](C(=O)N[C@]2(C)O[C@@]3(O)[C@@H]4CCCN4C(=O)[C@H](Cc4ccccc4)N3C2=O)C=C2c3cccc4[nH]cc(c34)C[C@H]21 [ERGOTAMINE]
HepSE_bilirubinemia (Hepatotoxicity [1]): 0 | HepSE_cholecystitis (Hepatotoxicity [2]): 0 | HepSE_cholelithiasis (Hepatotoxicity [3]): 0 | HepSE_cirrhosis (Hepatotoxicity [4]): 0 | HepSE_elevated liver function tests (Hepatotoxicity [5]): 0 | HepSE_hepatic failure (Hepatotoxicity [6]): 0 | HepSE_hepatic necrosis (Hepatotoxicity [7]): 0 | HepSE_hepatitis (Hepatotoxicity [8]): 0 | HepSE_hepatomegaly (Hepatotoxicity [9]): 0 | HepSE_jaundice (Hepatotoxicity [10]): 0 | HepSE_liver disease (Hepatotoxicity [11]): 0 | HepSE_liver fatty (Hepatotoxicity [12]): 0 | HepSE_liver function tests abnormal (Hepatotoxicity [13]): 0 | HepSE_Combined Scores (Hepatotoxicity [14]): 0

CC(=O)N[C@@H](CS)C(=O)O [ACETYLCYSTEINE]
HepSE_bilirubinemia (Hepatotoxicity [1]): 0 | HepSE_cholecystitis (Hepatotoxicity [2]): 0 | HepSE_cholelithiasis (Hepatotoxicity [3]): 0 | HepSE_cirrhosis (Hepatotoxicity [4]): 0 | HepSE_elevated liver function tests (Hepatotoxicity [5]): 0 | HepSE_hepatic failure (Hepatotoxicity [6]): 0 | HepSE_hepatic necrosis (Hepatotoxicity [7]): 0 | HepSE_hepatitis (Hepatotoxicity [8]): 0 | HepSE_hepatomegaly (Hepatotoxicity [9]): 0 | HepSE_jaundice (Hepatotoxicity [10]): 0 | HepSE_liver disease (Hepatotoxicity [11]): 0 | HepSE_liver fatty (Hepatotoxicity [12]): 0 | HepSE_liver function tests abnormal (Hepatotoxicity [13]): 0 | HepSE_Combined Scores (Hepatotoxicity [14]): 0

COc1cc([C@@H]2c3cc4c(cc3[C@@H](O[C@@H]3O[C@@H]5CO[C@@H](C)O[C@H]5[C@H](O)[C@H]3O)[C@H]3COC(=O)[C@H]23)OCO4)cc(OC)c1O [ETOPOSIDE]
HepSE_bilirubinemia (Hepatotoxicity [1]; Liver): 0 | HepSE_cholecystitis (Hepatotoxicity [2]; Liver): 0 | HepSE_cholelithiasis (Hepatotoxicity [3]; Liver): 0 | HepSE_cirrhosis (Hepatotoxicity [4]; Liver): 0 | HepSE_elevated liver function tests (Hepatotoxicity [5]; Liver): 0 | HepSE_hepatic failure (Hepatotoxicity [6]; Liver): 0 | HepSE_hepatic necrosis (Hepatotoxicity [7]; Liver): 0 | HepSE_hepatitis (Hepatotoxicity [8]; Liver): 0 | HepSE_hepatomegaly (Hepatotoxicity [9]; Liver): 0 | HepSE_jaundice (Hepatotoxicity [10]; Liver): 0 | HepSE_liver disease (Hepatotoxicity [11]; Liver): 0 | HepSE_liver fatty (Hepatotoxicity [12]; Liver): 0 | HepSE_liver function tests abnormal (Hepatotoxicity [13]; Liver): 0 | HepSE_Combined Scores (Hepatotoxicity [14]; Liver): 0
